Reference: BigSolDB 2.1

COC(=O)Nc1nc2ccc(Sc3ccccc3)cc2[nH]1
solubility (mole fraction)
Conditions	283.15 K	288.15 K	293.15 K	298.15 K	303.15 K	308.15 K	313.15 K	318.15 K	323.15 K	328.15 K
in 1,4-dioxane	–	0.00107	0.00124	0.00148	0.00169	0.00195	0.00222	0.00256	0.00289	0.00326
in NMP	0.0348	0.0389	0.0435	0.0485	0.0537	0.059	0.0651	0.0711	0.0773	0.0843
in acetone	0.000176	0.000192	0.000211	0.000228	0.000246	0.000265	0.000287	0.000308	0.00033	0.000353
in water	3.48e-06	4.4e-06	5.61e-06	7.12e-06	9.14e-06	1.15e-05	1.43e-05	1.77e-05	2.14e-05	2.63e-05
